The values below come from patent US8703797B2, “Condensed ring pyridine compounds as subtype-selective modulators of sphingosine-1-phosphate-2 (S1P2) receptors” (Allergan, Inc., priority 2009, dated 2014).

Some results are limits rather than exact numbers.

In assay [1] the target is S1P2 (Homo sapiens, UniProt O95136). As to the kind of experiment: S1P2 values marked (33P S1P). In kind it is binding. To be noted: value marked (33P S1P).
Assay [2] deals with T1, S1P3 (Homo sapiens, UniProt Q99500).
T1 construct: expressed in transfected cells
As to the kind of experiment: FLIPR calcium assay, cells expressing S1P3 and a G-protein. It is filed as cell-based. The protocol:
(§1) After removal of excess dye by washing, the cells are placed in the FLIPR TETRA instrument. Baseline fluorescence readings are taken prior to addition the compound to be tested. Agonists will trigger the receptor to interact with the G-protein, leading to an increase in intracellular calcium. The increase in intracellular calcium causes an increase in the fluorescence of the cells, due to the presence of fluo-4. This fluorescence increase is recorded by the FLIPR TETRA. After the calcium transient signal has decreased towards baseline, the standard agonist sphingosine 1-phosphate is added. If the test compound is an antagonist, an initial calcium signal will not be generated and the antagonist will prevent the generation of a calcium signal from sphingosine 1-phosphate.

The target in assay [3] is T2, S1P1 (Homo sapiens, UniProt P21453).
T2 construct: expressed in transfected cells
As to the kind of experiment: FLIPR calcium assay, cells expressing S1P1 and a G-protein. In kind it is cell-based. The protocol:
as §1

T1 sequence (Q99500 whole entry, species assumed): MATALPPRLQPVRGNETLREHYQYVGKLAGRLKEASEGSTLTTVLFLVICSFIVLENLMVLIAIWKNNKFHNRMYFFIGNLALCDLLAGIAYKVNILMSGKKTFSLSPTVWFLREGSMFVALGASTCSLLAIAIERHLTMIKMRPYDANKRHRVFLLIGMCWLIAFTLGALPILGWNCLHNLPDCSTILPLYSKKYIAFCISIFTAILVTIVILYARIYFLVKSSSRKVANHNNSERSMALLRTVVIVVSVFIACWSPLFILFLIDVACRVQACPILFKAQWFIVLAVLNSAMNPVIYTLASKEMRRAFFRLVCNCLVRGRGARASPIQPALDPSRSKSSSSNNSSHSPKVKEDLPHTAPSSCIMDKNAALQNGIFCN
T2 sequence (P21453 whole entry, species assumed): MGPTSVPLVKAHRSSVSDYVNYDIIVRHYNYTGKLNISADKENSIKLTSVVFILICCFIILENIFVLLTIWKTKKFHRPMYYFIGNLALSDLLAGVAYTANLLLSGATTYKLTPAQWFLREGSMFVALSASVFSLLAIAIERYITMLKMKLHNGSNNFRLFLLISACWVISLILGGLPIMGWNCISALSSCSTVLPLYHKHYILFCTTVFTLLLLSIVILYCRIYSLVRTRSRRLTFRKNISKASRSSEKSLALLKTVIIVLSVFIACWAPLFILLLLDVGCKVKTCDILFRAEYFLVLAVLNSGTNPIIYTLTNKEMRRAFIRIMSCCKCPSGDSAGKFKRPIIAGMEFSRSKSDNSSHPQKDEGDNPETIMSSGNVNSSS
Sequence of S1P2 (O95136 whole entry, species assumed): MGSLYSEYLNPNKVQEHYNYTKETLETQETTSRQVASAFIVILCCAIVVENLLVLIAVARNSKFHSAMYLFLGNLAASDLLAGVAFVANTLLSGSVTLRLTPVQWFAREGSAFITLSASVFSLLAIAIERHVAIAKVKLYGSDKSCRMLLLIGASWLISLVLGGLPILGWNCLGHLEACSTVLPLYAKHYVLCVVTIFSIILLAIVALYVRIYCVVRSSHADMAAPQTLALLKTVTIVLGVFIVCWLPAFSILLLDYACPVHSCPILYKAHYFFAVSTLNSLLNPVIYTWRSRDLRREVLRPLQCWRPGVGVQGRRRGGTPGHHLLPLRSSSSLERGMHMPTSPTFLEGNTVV

Broadly, the EC50 is the concentration that produces a half-maximal response. Consider “1-(2-chloro-6-propoxypyridin-4-yl)-3-((7-isopropyl-1,3-dimethyl-1H-pyrazolo[4,3-b]pyridin-5-yl)methyl)urea [Example 14]”, for which the figures for the EC50 in assay [1], in assay [2] and in assay [3] were 0.5 nM, above 8300 nM and above 8300 nM, respectively.

Take `CCOc1cc(NC(=O)NNc2cc(C(C)C)c3c(n2)c(C)nn3C)cc(Cl)n1` [Example 4, N-(2-chloro-6-ethoxypyridin-4-yl)-2-(7-isopropyl-1,3-dimethyl-1H-pyrazolo[4,3-b]pyridin-5-yl)hydrazinecarboxamide]: the EC50 is 1.5 nM in assay [1], above 8300 nM in assay [2] and above 8300 nM in assay [3].

As for `CCOc1cc(NC(=O)NCc2cc(C(C)C)c3c(n2)c(C)nn3C)cc(Cl)n1` [Example 13, 1-(2-chloro-6-ethoxypyridin-4-yl)-3-((7-isopropyl-1,3-dimethyl-1H-pyrazolo[4,3-b]pyridin-5-yl)methyl)urea], the EC50 in assay [1] is 0.5 nM; in assay [2], above 8300 nM; in assay [3], above 8300 nM.

In the case of `CCCOc1cc(NC(=O)NNc2cc(C(C)C)c3c(n2)c(C)nn3C)cc(Cl)n1` [Example 15, N-(2-chloro-6-propoxypyridin-4-yl)-2-(7-isopropyl-1,3-dimethyl-1H-pyrazolo[4,3-b]pyridin-5-yl)hydrazinecarboxamide], the values for the EC50 in assay [1], in assay [2] and in assay [3] were 0.2 nM, above 8300 nM and above 8300 nM, respectively.

Consider `CCCCOc1cc(NC(=O)NNc2cc(C(C)C)c3c(n2)c(C)nn3C)cc(Cl)n1` [Example 16, N-(2-butoxy-6-chloropyridin-4-yl)-2-(7-isopropyl-1,3-dimethyl-1H-pyrazolo[4,3-b]pyridin-5-yl)hydrazinecarboxamide], for which the EC50 in assay [1] was 0.1 nM; in assay [2], above 8300 nM; in assay [3], above 8300 nM.

In the case of `CCCCOc1cc(NC(=O)NCc2cc(C(C)C)c3c(n2)c(C)nn3C)cc(Cl)n1` [Example 17, 1-(2-butoxy-6-chloropyridin-4-yl)-3-((7-isopropyl-1,3-dimethyl-1H-pyrazolo[4,3-b]pyridin-5-yl)methyl)urea], the EC50 is 0.1 nM in assay [1], above 8300 nM in assay [2] and above 8300 nM in assay [3].

For the compound `CCOc1cc(NC(=O)NNc2cc(C(C)C)c3c(n2)c(C)nn3C)ccn1` [Example 18, N-(2-ethoxypyridin-4-yl)-2-(7-isopropyl-1,3-dimethyl-1H-pyrazolo[4,3-b]pyridin-5-yl)hydrazinecarboxamide], the results for the EC50 in assay [1], in assay [2] and in assay [3] were 266 nM, above 8300 nM and above 8300 nM, respectively.

Take `COc1cc(OC)c(NC(=O)NNc2cc(C(C)C)c3c(n2)c(C)nn3C)cc1Cl` [Example 19, N-(5-chloro-2,4-dimethoxyphenyl)-2-(7-isopropyl-1,3-dimethyl-1H-pyrazolo[4,3-b]pyridin-5-yl)hydrazinecarboxamide]: the EC50 is 40 nM in assay [1], above 8300 nM in assay [2] and above 8300 nM in assay [3].

As for `Cc1cc(NNC(=O)Nc2cc(Cl)cc(Cl)c2)nc2ncccc12` [Example 20, N-(3,5-dichlorophenyl)-2-(4-methyl-1,8-naphthyridin-2-yl)hydrazinecarboxamide], the EC50 in assay [1] is 196 nM; in assay [2] it was above 8300 nM; in assay [3] it was above 8300 nM.

As to `CC(C)c1cc(NNC(=O)Nc2cc(Cl)cc(Cl)c2)nc2ncccc12` [Example 21, N-(3,5-dichlorophenyl)-2-(4-isopropyl-1,8-naphthyridin-2-yl)hydrazinecarboxamide], the concentration giving a half-maximal response (EC50) in assay [1] was 81 nM; in assay [2] it was above 8300 nM; in assay [3] it was above 8300 nM.

Regarding `Cc1ccc(C)c2c(C(C)C)cc(NNC(=O)Nc3cc(Cl)cc(Cl)c3)nc12` [Example 22, N-(3,5-dichlorophenyl)-2-(4-isopropyl-5,8-dimethylquinolin-2-yl)hydrazinecarboxamide], the EC50 is 199 nM in assay [1], above 8300 nM in assay [2] and above 8300 nM in assay [3].
